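Growth conditions: 96-well plates. Treatment: test compound, 48 hours, 5 concentrations. Analysis: linear interpolation between bracketing concentrations; unreached endpoints set to highest concentration. GI50 is the concentration that inhibits growth by half.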 Active and inactive are the calls of the source. Cut-off read from the data, not from the text of the source: active = GI50 up to about 1.1 µM and inactive = higher.
What was measured:
Experiment in all cases: NCI tumour cell line growth inhibition, 48 h
RPMI-8226 = test system: RPMI-8226
NCI/ADR-RES = test system: NCI/ADR-RES
BT-549 = test system: BT-549
SW-620 = test system: SW-620
MCF7 = test system: MCF7
COLO 205 = test system: COLO 205
CAKI-1 = test system: CAKI-1
NCI-H460 = test system: NCI-H460
HCT-116 = test system: HCT-116
SF-295 = test system: SF-295
NCI-H226 = test system: NCI-H226
SNB-75 = test system: SNB-75
SF-539 = test system: SF-539
UACC-257 = test system: UACC-257
HL-60 = test system: HL-60
CCRF-CEM = test system: CCRF-CEM
MDA-N = test system: MDA-N
SN12C = test system: SN12C
ACHN = test system: ACHN
MDA-MB-231 = test system: MDA-MB-231
LOX IMVI = test system: LOX IMVI
UACC-62 = test system: UACC-62
K562 = test system: K562
SK-MEL-28 = test system: SK-MEL-28
NCI-H23 = test system: NCI-H23
DU-145 = test system: DU-145
786-0 = test system: 786-0
Hs-578T = test system: Hs-578T
U-251 = test system: U-251
SF-268 = test system: SF-268
SR = test system: SR
OVCAR-3 = test system: OVCAR-3
A549 = test system: A549
EKVX = test system: EKVX
HOP-62 = test system: HOP-62
HCT-15 = test system: HCT-15
MDA-MB-435 = test system: MDA-MB-435
HCC 2998 = test system: HCC 2998
IGROV-1 = test system: IGROV-1
PC-3 = test system: PC-3
OVCAR-8 = test system: OVCAR-8
SNB-19 = test system: SNB-19
RXF 393 = test system: RXF 393
OVCAR-4 = test system: OVCAR-4
OVCAR-5 = test system: OVCAR-5
SK-OV-3 = test system: SK-OV-3
A498 = test system: A498
TK-10 = test system: TK-10
M14 = test system: M14
MOLT-4 = test system: MOLT-4
HT-29 = test system: HT-29
UO-31 = test system: UO-31
KM12 = test system: KM12
SK-MEL-5 = test system: SK-MEL-5
Malme-3M = test system: Malme-3M
SK-MEL-2 = test system: SK-MEL-2
NCI-H522 = test system: NCI-H522
T47D = test system: T47D
HOP-92 = test system: HOP-92

CCOC(=O)CC(=O)NC1CC2CCC1(C)C2(C)C (stereo not given)
GI50 (RPMI-8226): > 100 µM (inactive)
GI50 (NCI/ADR-RES): > 100 µM (inactive)
GI50 (BT-549): > 100 µM (inactive)
GI50 (SW-620): > 100 µM (inactive)
GI50 (MCF7): > 100 µM (inactive)
GI50 (COLO 205): > 100 µM (inactive)
GI50 (CAKI-1): > 100 µM (inactive)
GI50 (NCI-H460): > 100 µM (inactive)
GI50 (HCT-116): > 100 µM (inactive)
GI50 (SF-295): > 100 µM (inactive)
GI50 (NCI-H226): > 100 µM (inactive)
GI50 (SNB-75): > 100 µM (inactive)
GI50 (SF-539): > 100 µM (inactive)
GI50 (UACC-257): > 100 µM (inactive)
GI50 (HL-60): > 100 µM (inactive)
GI50 (CCRF-CEM): > 100 µM (inactive)
GI50 (MDA-N): > 100 µM (inactive)
GI50 (SN12C): > 100 µM (inactive)
GI50 (ACHN): > 100 µM (inactive)
GI50 (MDA-MB-231): > 100 µM (inactive)
GI50 (LOX IMVI): > 100 µM (inactive)
GI50 (UACC-62): > 100 µM (inactive)
GI50 (K562): > 100 µM (inactive)
GI50 (SK-MEL-28): > 100 µM (inactive)
GI50 (NCI-H23): > 100 µM (inactive)
GI50 (DU-145): > 100 µM (inactive)
GI50 (786-0): > 100 µM (inactive)
GI50 (Hs-578T): > 100 µM (inactive)
GI50 (U-251): > 100 µM (inactive)
GI50 (SF-268): > 100 µM (inactive)
GI50 (SR): > 100 µM (inactive)
GI50 (OVCAR-3): > 100 µM (inactive)
GI50 (A549): > 100 µM (inactive)
GI50 (EKVX): > 100 µM (inactive)
GI50 (HOP-62): > 100 µM (inactive)
GI50 (HCT-15): > 100 µM
GI50 (MDA-MB-435): > 100 µM (inactive)
GI50 (HCC 2998): > 100 µM (inactive)
GI50 (IGROV-1): > 100 µM (inactive)
GI50 (PC-3): > 100 µM (inactive)
GI50 (OVCAR-8): > 100 µM (inactive)
GI50 (SNB-19): > 100 µM (inactive)
GI50 (RXF 393): > 100 µM (inactive)
GI50 (OVCAR-4): > 100 µM (inactive)
GI50 (OVCAR-5): > 100 µM (inactive)
GI50 (SK-OV-3): > 100 µM (inactive)
GI50 (A498): > 100 µM (inactive)
GI50 (TK-10): > 100 µM (inactive)
GI50 (M14): > 100 µM (inactive)
GI50 (MOLT-4): > 100 µM (inactive)
GI50 (HT-29): > 100 µM (inactive)
GI50 (UO-31): > 100 µM (inactive)
GI50 (KM12): > 100 µM (inactive)
GI50 (SK-MEL-5): > 100 µM (inactive)
GI50 (Malme-3M): > 100 µM (inactive)

Cc1ccc(/N=C/C=C(\Nc2ccc(C)cc2)c2ccc3ccccc3c2)cc1
GI50 (RPMI-8226): 0.536 µM (active)
GI50 (NCI/ADR-RES): 0.445 µM (active)
GI50 (BT-549): 2.33 µM (inactive)
GI50 (SW-620): 0.445 µM (active)
GI50 (MCF7): 0.515 µM (active)
GI50 (COLO 205): 0.571 µM (active)
GI50 (CAKI-1): 0.45 µM (active)
GI50 (SK-MEL-2): 0.938 µM (active)
GI50 (NCI-H460): 0.489 µM (active)
GI50 (HCT-116): 0.434 µM (active)
GI50 (SF-295): 0.497 µM (active)
GI50 (NCI-H226): 1.4 µM (inactive)
GI50 (SNB-75): 0.468 µM (active)
GI50 (SF-539): 1.21 µM (inactive)
GI50 (UACC-257): 0.501 µM (active)
GI50 (HL-60): 0.34 µM (active)
GI50 (CCRF-CEM): 0.189 µM (active)
GI50 (ACHN): 0.671 µM (active)
GI50 (MDA-MB-231): 0.388 µM (active)
GI50 (LOX IMVI): 0.456 µM (active)
GI50 (UACC-62): 0.331 µM (active)
GI50 (K562): 0.414 µM (active)
GI50 (SK-MEL-28): 0.488 µM (active)
GI50 (NCI-H23): 0.585 µM (active)
GI50 (NCI-H522): 2.74 µM (inactive)
GI50 (DU-145): 1.15 µM (inactive)
GI50 (786-0): 0.757 µM (active)
GI50 (Hs-578T): 0.753 µM (active)
GI50 (U-251): 0.738 µM (active)
GI50 (SF-268): 2.19 µM (inactive)
GI50 (SR): 0.39 µM (active)
GI50 (OVCAR-3): 0.364 µM (active)
GI50 (A549): 2.66 µM (inactive)
GI50 (HOP-62): 0.912 µM (active)
GI50 (HCT-15): 0.45 µM
GI50 (MDA-MB-435): 0.203 µM (active)
GI50 (IGROV-1): 0.541 µM (active)
GI50 (PC-3): 1.02 µM (active)
GI50 (OVCAR-8): > 100 µM (inactive)
GI50 (SNB-19): 1.68 µM (inactive)
GI50 (RXF 393): 0.521 µM (active)
GI50 (OVCAR-4): 0.65 µM (active)
GI50 (T47D): 1.41 µM (inactive)
GI50 (OVCAR-5): 1.45 µM (inactive)
GI50 (SK-OV-3): 0.731 µM (active)
GI50 (HOP-92): 10.6 µM (inactive)
GI50 (A498): 10.8 µM (inactive)
GI50 (TK-10): 1.2 µM (inactive)
GI50 (M14): 1.13 µM (inactive)
GI50 (MOLT-4): 0.237 µM (active)
GI50 (HT-29): 0.347 µM (active)
GI50 (UO-31): 1.07 µM (active)
GI50 (KM12): 0.299 µM (active)
GI50 (SK-MEL-5): 0.482 µM (active)
GI50 (Malme-3M): 0.238 µM (active)

Reference: ChEMBL document CHEMBL1201862, “PubChem BioAssay data set” (2004)
